According to patent US20070014723A1, “Methods and compositions for 10Beryllium complex probes” (priority 2005, published 2007):
Marks after values point to notes of the source that are not given here.

Key:
Format in all cases: cell-based, human
[1] = system: BAL macrophages from CBD subjects; experiment: Apoptosis (nuclear fragmentation) of CBD BAL macrophages; conditions: 100 μM BeSO4, 50 μg Be-ferritin adduct containing 270 picomoles of Be, or ferritin alone, mean±SEM
Protocol: FIG. 1. illustrates an exemplary histogram of (a) TUNEL (assay for DNA strand break) positive nuclear staining of CBD BAL macrophages after exposure to 100 μM BeSO4 and (b) nuclear fragmentation in CBD BAL macrophages exposed to Be-ferritin containing 270 picomoles of Be. (c) The percent (mean %±SEM) of CBD BAL cells (n=8) with TUNEL positive nuclei (black) or with fragmented nuclei (open) after exposure to 100 μM BeSO4. *p<0.05 versus the corresponding unstimulated control.
Cell Cultivation: Bronchoalveolar lavage (BAL) was performed as previously described. […] BAL macrophages and T cells were separated by an adherence method known in the art.

[2] = system: BAL lymphocytes from CBD and BeS subjects; experiment: Apoptosis of BAL lymphocytes
[3] = system: BAL cells (Be-specific BAL T cells); experiment: Beryllium lymphocyte proliferation test (BeLPT), BAL cells; conditions: for Peak CBD BAL cell BeLPT stimulation index, median (minimum, maximum): CBD BAL cells, n = 4, 10^-10 M Be-ferritin, 10^-4 M BeSO4, 10^-4 M Al2(SO4)3, ferritin

Molecule	BAL macrophages with apoptotic fragmented nuclei [1]	Induction of apoptosis of BAL lymphocytes [2]	BAL BeLPT SI, median (minimum, maximum) ([3]; BeS subjects, peak SI after BeSO4 stimulation)	Peak CBD BAL cell BeLPT stimulation index, median (minimum, maximum) [3]
O=S(=O)([O-])[O-].[Be+2] [BeSO4, Beryllium sulfate]	50%±6%	did not induce	1.9 (1.2, 46)	18.5 (3.7, 124)**
ferritin	< 3%	–	–	1.1 (0.8, 1.3)
